Results from patent US20210002231A1 (Centre National de la Recherche Scientifique, priority 2018, published 2021).
Starred links: 1 amine or outer side, 2 acyl side, 3 side chain; linkers in the order of their positions; H or OH if unused. Non-standard residues stand in square brackets, D forms with d. Residues, ends and D or L forms follow the SMILES beside them. *: point of attachment. Nva(5-(4-Bn-piperidin-1-yl)) = N[C@@H](CCCN1CCC(Cc2ccccc2)CC1)C(=O)O; X1 = O=C1[C@@H](N[*:1])Cc2ccccc2CN1CCC(=O)[*:2]; Dmt = Cc1cc(O)cc(C)c1C[C@H](N)C(=O)O; X2 = c1ccc2[nH]c(*)nc2c1; X3 = c1ccc2oc(*)nc2c1; X4 = c1ccc2sc(*)nc2c1

Tests used:
human MOPr [1] = target: T1, human MOPr (Homo sapiens, UniProt P35372); test: cell-based; format: cell-based; set-up: expressed in transfected cells; HEK293-Glo20F cells (cAMP); settings: for EC50: read-out: MOPr (cAMP) EC50; for Emax: read-out: MOPr (cAMP) Emax
Experimental: (§1) Stimulation by endogenous RF-amide peptides or test compounds for [^35S]-GTPγS binding to membranes from CHO cells expressing human NPFF1R or NPFF2R, were examined as reported. 1.6. Glo-Sensor cAMP Assay cAMP accumulation assay was essentially done as described with the following modifications: HEK293 cells stably expressing cAMP Glosensor-20F were used, with or without additional stable expression of each individual opioid receptor or NPFF1R. The cAMP responses were measured in presence of D-luciferin (1 mM).

human MOPr [2] = target: T1, human MOPr; test: BRET1 β-arrestin-2 recruitment assay; format: cell-based; set-up: expressed in transfected cells; host or cells: HEK293 cells stably expressing eYFP-β-arrestin-2, transiently transfected with the Rluc8-MOP plasmid; settings: for EC50: Table 3B, — = non-detectable recruitment, read-out: MOPr (β-arrestin-2) EC50; for Emax: read-out: MOPr (β-arrestin-2) Emax;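 on MOPr (β-arrestin-2) Emax: Emax relative to maximal DAMGO-induced BRET as 100%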
Experimental: Peak response amplitudes were normalized to basal and maximal (cells permeabilized with 20 μM digitonin) fluorescence levels. 1.8. β-Arrestin-2 recruitment assay The β-arrestin-2 recruitment assay was performed as described [34; 45] with minor modifications. Briefly, two days prior the experiment, HEK293 cells stably expressing eYFP-tagged β-arrestin-2 were transfected with the plasmid encoding Rluc8-MOP receptor. β-Arrestin-2 recruitment was measured at 37° C. in presence of 5 μM Coelenterazine H, 5 min after agonist addition.

NPFF2R [3] = target: T2, NPFF2R (Homo sapiens, UniProt Q9Y5X5); test: Glo-sensor cAMP assay, agonist and antagonist mode; format: cell-based; set-up: expressed in transfected cells; HEK293-Glo20F cells (cAMP); settings: evaluated at 0.5 and 5 μM
NPFF2R [4] = target: T2, NPFF2R; test: Radioligand competition binding with [125I]-1-DMe-NPFF; set-up: expressed in transfected cells; HEK293-Glo20F cells (cAMP)
human NPFF1R [5] = target: T3, human NPFF1R (Homo sapiens, UniProt Q9GZQ6); test: as above; set-up: expressed in transfected cells; HEK293-Glo20F cells (cAMP)
human MOPr [6] = target: T1, human MOPr; test: Radioligand competition binding with [3H]-diprenorphine; set-up: expressed in transfected cells; HEK293-Glo20F cells (cAMP)
human NPFF1R [7] = target: T3, human NPFF1R; test: [35S]-GTPγS binding assay; format: biochemical; set-up: expressed in transfected cells; settings: for Emax: relative to RFRP3
Experimental: as §1

NPFF2R [8] = target: T2, NPFF2R; test: [35S]-GTPγS binding assay; format: biochemical; set-up: expressed in transfected cells
Experimental: as §1

[9] = Table 3a, HEK293-Glo20F-hMOPr cells
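Wherever MOPr (cAMP) Emax is given: Emax relative to DAMGO as 100%.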

T2 sequence (Q9Y5X5 whole entry): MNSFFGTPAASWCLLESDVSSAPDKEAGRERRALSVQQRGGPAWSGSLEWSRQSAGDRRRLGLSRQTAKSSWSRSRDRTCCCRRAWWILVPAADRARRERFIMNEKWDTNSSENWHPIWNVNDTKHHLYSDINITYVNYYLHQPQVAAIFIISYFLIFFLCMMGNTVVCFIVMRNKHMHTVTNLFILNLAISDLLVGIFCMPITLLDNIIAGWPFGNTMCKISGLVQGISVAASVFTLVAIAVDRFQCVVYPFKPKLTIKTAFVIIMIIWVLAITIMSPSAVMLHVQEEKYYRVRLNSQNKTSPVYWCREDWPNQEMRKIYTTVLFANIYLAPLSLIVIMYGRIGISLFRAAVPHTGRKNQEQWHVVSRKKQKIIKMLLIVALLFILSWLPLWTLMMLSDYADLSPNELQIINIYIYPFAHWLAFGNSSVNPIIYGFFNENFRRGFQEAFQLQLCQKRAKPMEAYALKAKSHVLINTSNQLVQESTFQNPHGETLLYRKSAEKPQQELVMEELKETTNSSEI
T3 sequence (Q9GZQ6 whole entry): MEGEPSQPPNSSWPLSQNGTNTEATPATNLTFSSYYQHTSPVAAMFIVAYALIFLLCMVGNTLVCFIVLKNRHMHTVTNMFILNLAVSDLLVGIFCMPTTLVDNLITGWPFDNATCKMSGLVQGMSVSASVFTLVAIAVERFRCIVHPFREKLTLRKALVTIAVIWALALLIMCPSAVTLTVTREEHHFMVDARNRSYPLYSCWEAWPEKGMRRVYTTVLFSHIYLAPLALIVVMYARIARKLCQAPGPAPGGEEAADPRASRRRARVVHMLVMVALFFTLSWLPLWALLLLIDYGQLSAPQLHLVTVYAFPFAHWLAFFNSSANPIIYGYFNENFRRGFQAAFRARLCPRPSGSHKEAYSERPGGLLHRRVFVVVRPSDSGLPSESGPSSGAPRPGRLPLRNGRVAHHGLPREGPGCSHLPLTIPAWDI
T1 sequence (P35372 whole entry): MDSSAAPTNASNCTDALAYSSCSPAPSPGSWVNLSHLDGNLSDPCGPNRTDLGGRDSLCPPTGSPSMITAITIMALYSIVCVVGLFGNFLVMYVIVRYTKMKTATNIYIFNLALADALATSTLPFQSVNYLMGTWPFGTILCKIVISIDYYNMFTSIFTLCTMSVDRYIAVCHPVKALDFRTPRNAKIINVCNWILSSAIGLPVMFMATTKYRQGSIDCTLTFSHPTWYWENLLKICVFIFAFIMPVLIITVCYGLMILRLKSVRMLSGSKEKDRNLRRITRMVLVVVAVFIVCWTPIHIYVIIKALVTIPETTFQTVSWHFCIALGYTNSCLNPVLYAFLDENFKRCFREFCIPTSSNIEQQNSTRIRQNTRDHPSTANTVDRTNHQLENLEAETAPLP

Cc1cc(O)cc(C)c1C[C@H](N)C(=O)N[C@H](CCCNC(=N)N)C(=O)N[C@H]1Cc2ccccc2CN(CCC(=O)N[C@@H](CCCN2CCC(Cc3ccccc3)CC2)C(=O)N[C@H](C(N)=O)C(C)C)C1=O [DP0001, H-Dmt-D-Arg-Aba-β-Ala-Bpa-Val-NH2] (H-[Dmt][dR][X1][Nva(5-(4-Bn-piperidin-1-yl))]V-NH2)
EC50 (human MOPr [1]; Table 3B): 16.9 ± 8.3 nM | Emax (human MOPr [1]): 124% | EC50 (human MOPr [2]): 101 nM | Emax (human MOPr [2]): 52% | NPFF2R (cAMP) Agonist mode (NPFF2R [3]): Partial | IC50 (NPFF2R [4]): < 50 nM | IC50 (human NPFF1R [5]): ~500 nM

CC[C@H](C)[C@H](NC(=O)[C@H](CCCN1CCC(Cc2ccccc2)CC1)NC(=O)CCN1Cc2ccccc2C[C@H](NC(=O)[C@@H](CCCNC(=N)N)NC(=O)[C@@H](N)Cc2c(C)cc(O)cc2C)C1=O)C(N)=O [DP0002, H-Dmt-D-Arg-Aba-β-Ala-Bpa-Ile-NH2] (H-[Dmt][dR][X1][Nva(5-(4-Bn-piperidin-1-yl))]I-NH2)
EC50 (human MOPr [1]; Table 3B): 8.9 ± 2.6 nM | Emax (human MOPr [1]): 110% | EC50 (human MOPr [2]): 45 nM | Emax (human MOPr [2]): 49% | NPFF2R (cAMP) Agonist mode (NPFF2R [3]): Partial | IC50 (NPFF2R [4]): < 50 nM | IC50 (human NPFF1R [5]): 50 to 500 nM

Cc1cc(O)cc(C)c1C[C@H](N)C(=O)N[C@H](CCCNC(=N)N)C(=O)N[C@H]1Cc2ccccc2CN(CCC(=O)N[C@@H](CCCN2CCC(Cc3ccccc3)CC2)C(=O)N[C@@H](CC(C)C)C(N)=O)C1=O [DP0003, H-Dmt-D-Arg-Aba-β-Ala-Bpa-Leu-NH2] (H-[Dmt][dR][X1][Nva(5-(4-Bn-piperidin-1-yl))]L-NH2)
EC50 (human MOPr [1]; Table 3B): 20.1 ± 10 nM | Emax (human MOPr [1]): 70% | EC50 (human MOPr [2]): 37 nM | Emax (human MOPr [2]): 38% | NPFF2R (cAMP) Agonist mode (NPFF2R [3]): Partial | IC50 (NPFF2R [4]): < 50 nM | IC50 (human NPFF1R [5]): 50 to 500 nM

Cc1cc(O)cc(C)c1C[C@H](N)C(=O)N[C@H](CCCNC(=N)N)C(=O)N[C@H]1Cc2ccccc2CN(CC(=O)N[C@@H](CCCN)C(=O)N[C@@H](Cc2ccccc2)C(N)=O)C1=O [KGFF04, H-Dmt-D-Arg-Aba-Gly-Orn-Phe-NH2]
EC50 (human MOPr [1]; [9]): 9.5 ± 1.5 nM | Emax (human MOPr [1]): 70 ± 4% | Ki (human MOPr [6]): 0.67 ± 0.29 nM | EC50 (human NPFF1R [7]): > 10000 nM | Emax (human NPFF1R [7]): 25 ± 4% | EC50 (NPFF2R [8]): 963 ± 168 nM | Emax (NPFF2R [8]): 67 ± 3% | Ki (NPFF2R [4]): 45 ± 8 nM | Ki (human NPFF1R [5]): 780 ± 90 nM

Cc1cc(O)cc(C)c1C[C@H](N)C(=O)N[C@H](CCCNC(=N)N)C(=O)N[C@@H](Cc1ccccc1)C(N)=O [KGFF07, H-Dmt-D-Arg-Phe-NH2] (HELM PEPTIDE1{[Cc1cc(O)cc(C)c1C[C@H](N)C(=O)[*:2]].[dR].F.[am]}$$$$V2.0)
EC50 (human MOPr [1]; [9]): 1.7 ± 0.4 nM | Emax (human MOPr [1]): 102 ± 2% | Ki (human MOPr [6]): 0.29 ± 0.13 nM | EC50 (human NPFF1R [7]): 87 ± 7 nM | Emax (human NPFF1R [7]): 84 ± 8% | EC50 (NPFF2R [8]): 1930 nM | Emax (NPFF2R [8]): 87 ± 2% | Ki (NPFF2R [4]): 84 ± 26 nM | Ki (human NPFF1R [5]): 11.8 ± 3.6 nM

Cc1cc(O)cc(C)c1C[C@H](N)C(=O)N[C@H](CCCNC(=N)N)C(=O)N[C@H]1Cc2ccccc2CNC1=O [KGFF12, H-Dmt-D-Arg-Aba-NH]
EC50 (human MOPr [1]; [9]): 2.7 ± 1.5 nM | Emax (human MOPr [1]): 103 ± 4% | Ki (human MOPr [6]): 0.17 ± 0.05 nM | EC50 (human NPFF1R [7]): > 10000 nM | Emax (human NPFF1R [7]): 13 ± 3% | EC50 (NPFF2R [8]): > 10000 nM | Emax (NPFF2R [8]): 32 ± 17% | Ki (NPFF2R [4]): 375 ± 108 nM | Ki (human NPFF1R [5]): 2490 nM

CNC(=O)[C@H](Cc1ccccc1)NC(=O)[C@@H](CCCNC(=N)N)NC(=O)[C@@H](N)Cc1c(C)cc(O)cc1C [KGFF13, H-Dmt-D-Arg-Phe-NHMe] (HELM PEPTIDE1{[Cc1cc(O)cc(C)c1C[C@H](N)C(=O)[*:2]].[dR].F.[CN[*:1]]}$$$$V2.0)
EC50 (human MOPr [1]; [9]): 1 ± 0.4 nM | Emax (human MOPr [1]): 97 ± 2% | Ki (human MOPr [6]): 0.11 ± 0.05 nM | EC50 (human NPFF1R [7]): > 10000 nM | Emax (human NPFF1R [7]): 39 ± 2% | EC50 (NPFF2R [8]): > 10000 nM | Emax (NPFF2R [8]): 68 ± 8% | Ki (NPFF2R [4]): 206 ± 47 nM | Ki (human NPFF1R [5]): 147 ± 16 nM

Cc1cc(O)cc(C)c1C[C@H](N)C(=O)N[C@H](CCCNC(=N)N)C(=O)N[C@H]1Cc2ccccc2CN(CCC(=O)N[C@@H](CCCCNc2nc3ccccc3[nH]2)C(=O)N[C@@H](Cc2ccccc2)C(N)=O)C1=O [KGFF14, H-Dmt-D-Arg-Aba-β-Ala-Lys(Bim)-Phe-NH2] (H-[Dmt][dR][X1]K(X2)F-NH2)
EC50 (human MOPr [1]; [9]): 5.9 ± 2.5 nM | Emax (human MOPr [1]): 99 ± 4% | Ki (human MOPr [6]): 1.6 ± 0.3 nM | EC50 (human NPFF1R [7]): 76 ± 26 nM | Emax (human NPFF1R [7]): 74 ± 1% | EC50 (NPFF2R [8]): 89 ± 7 nM | Emax (NPFF2R [8]): 73 ± 18% | Ki (NPFF2R [4]): 4.15 ± 1.35 nM | Ki (human NPFF1R [5]): 4.54 ± 0.01 nM

Cc1cc(O)cc(C)c1C[C@H](N)C(=O)N[C@H](CCCNC(=N)N)C(=O)N[C@H]1Cc2ccccc2CN(CCC(=O)N[C@@H](CCCCNc2nc3ccccc3o2)C(=O)N[C@@H](Cc2ccccc2)C(N)=O)C1=O [KGFF15, H-Dmt-D-Arg-Aba-β-Ala-Lys(Box)-Phe-NH2] (H-[Dmt][dR][X1]K(X3)F-NH2)
EC50 (human MOPr [1]; [9]): 4.1 ± 1.7 nM | Emax (human MOPr [1]): 92 ± 13% | Ki (human MOPr [6]): 1.8 ± 0.9 nM | EC50 (human NPFF1R [7]): 1020 nM | Emax (human NPFF1R [7]): 51 ± 5% | EC50 (NPFF2R [8]): 930 ± 210 nM | Emax (NPFF2R [8]): 105 ± 15% | Ki (NPFF2R [4]): 9.6 ± 0.6 nM | Ki (human NPFF1R [5]): 88 ± 8 nM

Cc1cc(O)cc(C)c1C[C@H](N)C(=O)N[C@H](CCCNC(=N)N)C(=O)N[C@H]1Cc2ccccc2CN(CCC(=O)N[C@@H](CCCCNc2nc3ccccc3s2)C(=O)N[C@@H](Cc2ccccc2)C(N)=O)C1=O [KGFF16, H-Dmt-D-Arg-Aba-β-Ala-Lys(Bth)-Phe-NH2] (H-[Dmt][dR][X1]K(X4)F-NH2)
EC50 (human MOPr [1]; [9]): 6.2 ± 2 nM | Emax (human MOPr [1]): 93 ± 6% | Ki (human MOPr [6]): 2.6 ± 1.3 nM | EC50 (human NPFF1R [7]): 273 ± 115 nM | Emax (human NPFF1R [7]): 51 ± 7% | EC50 (NPFF2R [8]): 526 ± 12 nM | Emax (NPFF2R [8]): 88 ± 12% | Ki (NPFF2R [4]): 10.4 ± 2.3 nM | Ki (human NPFF1R [5]): 80 ± 13 nM
